Reference: patent publication US8377944B2, “Thienopyrimidine derivatives” (ASKA Pharmaceutical Co., Ltd., priority 2005, dated 2013)

Columns and labels:
[1] = system: model of urethral obstruction with the guinea pigs; assay: Dysuria pathological model (urethral obstruction), cystometry; type: in vivo, guinea pig; conditions: for Frequency of non-voiding contraction, pre-administration / Residual urine volume, pre-administration: baseline before administration; for Frequency of non-voiding contraction, pre-administration / Residual urine volume, pre-administration / Frequency of non-voiding contraction, post-administration / Residual urine volume, post-administration: mean; for Frequency of non-voiding contraction, post-administration / Residual urine volume, post-administration: up to 30 min after administration; for Frequency of non-voiding contraction, quantitative change / Residual urine volume, quantitative change: post minus pre
Experimental: (3) Investigation of PDE9 Inhibitory Activity on Dysuria Pathological Model
Three to four weeks old female Hartley strain guinea pigs (Nippon SLC) were laparotomized under anesthesia with pentobarbital (30 mg/kg i.p.), and a polyethylene tube of 1.4 mm in width and 2.0 mm in inner diameter was placed in each guinea pig's urethra to the distal side by 1-2 mm from the bladder neck. After closing the incision, the guinea pigs were reared for at least 3 weeks to provide a model of urethral obstruction with the guinea pigs in which rise in intravesical pressure not accompanied by voiding (non-voiding contraction) and residual urine were induced.
The model was catheterized under anesthesia with urethane (1 g/kg i.p.) at the apex of urinary bladder and right jugular vein for cystometrography and intravenous administration, respectively. The other end of the bladder catheter was connected to a pressure transducer and infusion pump through three way stopcock. By means of the infusion pump, physiological saline was continuously infused into the bladder at a rate of 0.4 mL/min to induce micturition reflex. Immediately after the micturition reflex was induced, the physiological saline infusion into the bladder was stopped. The intravesical pressure at the time the micturition occurred was measured with the pressure transducer and the cystometrogram was recorded with pen recorder. The urine voided was collected with a disposable type weighing dish to measure its weight. Further the physiological saline remained in the bladder was sucked with syringe through the bladder catheter to measure the residual urine volume. Multiple operation cycles (normally 4 times) of suspending physiological saline infusion when micturition reflex was induced and resuming the infusion after about 1 minute to induce next micturition reflex, were repeated to stabilize the voiding response.
Also the frequency of non-voiding contraction occurred during the operations was measured. The respective mean values of frequency of non-voiding contraction and residual urine volume in the experiment using several guinea pigs are shown in the following Table B.

[2] = biological target: T1, human recombinant PDE5 protein (Homo sapiens, UniProt O76074); assay: Measurement of PDE5-inhibiting activity; type: biochemical; conditions: human recombinant PDE5, [3H]-cGMP substrate; read-out: Inhibitory Activity (IC50 value) PDE 5
T1 construct: made in house; host or cells: COS-1 cells, transient transfection of pcDNA 3.1(+); supernatant of the cell homogenate
Text: (2) Measurement of PDE5-Inhibiting Activity:
1) Preparation of Human Recombinant PDE5 Protein
Based on the base sequence of hsPDE5A1 registered with GenBank database (accession No.: NM_001083), hsPDE5A1 fragment was amplified by polymerase chain reaction under the following conditions, using the following sequence (SIGMA GENOSYS) as the primer and Human Prostate […] cDNA library (CLONTECH) as the template DNA, with KDD plus DNA polymerase (TOYOBO): […]
hPDE5-5′E primer: […] [SEQ ID NO: 3] […]
hPDE5-3′ primer: […] [SEQ ID NO: 4]
PCR condition: [94° C., 2 min]×1 cycle, [(94° C., 30 sec), (65° C., 30 sec), (68° C., 3 min)]×25 cycle, [68° C., 6 min]×1 cycle Thus obtained hsPDE5A1 fragment was given a restricted enzymatic treatment with XBaI and EcoRI, and thereafter inserted into pcDNA 3.1(+) expression vector (Invitrogen) to let it serve as a human PDE5 expression vector.
Human PDE5 expression vector-transformed Escherichia coli was mass incubated to produce a large amount of PDE5 expression vector, which was transiently transfected into COS-1 cells, with LIPOFECTAMINE 2000 Reagent (GIBCO). The cells were homogenized in ice-cooled buffer A and centrifuged at 4° C., 14,000×g for 10 minutes. The supernatant was isolated to provide human recombinant PDE5 protein solution.
2) Measurement of PDE5-Inhibiting Activity
By a method similar to the measurement of PDE9-inhibiting activity, PDE5-inhibiting activity of the test compounds was measured, their inhibition was calculated and IC50 value to PDE5 of each of the compounds was determined. The results are shown in the following Table A, concurrently with the compounds' IC50 values against PDE9.

[3] = biological target: T2, human recombinant PDE9 protein (Homo sapiens, UniProt O76083); assay: Measurement of PDE9-inhibiting activity; type: biochemical; conditions: human recombinant PDE9, [3H]-cGMP substrate; read-out: Inhibitory Activity (IC50 value) PDE 9
T2 construct: made in house; host or cells: COS-1 cells, transient transfection of pcDNA 3.1(+); supernatant of the cell homogenate
T2 sequence (O76083 whole entry): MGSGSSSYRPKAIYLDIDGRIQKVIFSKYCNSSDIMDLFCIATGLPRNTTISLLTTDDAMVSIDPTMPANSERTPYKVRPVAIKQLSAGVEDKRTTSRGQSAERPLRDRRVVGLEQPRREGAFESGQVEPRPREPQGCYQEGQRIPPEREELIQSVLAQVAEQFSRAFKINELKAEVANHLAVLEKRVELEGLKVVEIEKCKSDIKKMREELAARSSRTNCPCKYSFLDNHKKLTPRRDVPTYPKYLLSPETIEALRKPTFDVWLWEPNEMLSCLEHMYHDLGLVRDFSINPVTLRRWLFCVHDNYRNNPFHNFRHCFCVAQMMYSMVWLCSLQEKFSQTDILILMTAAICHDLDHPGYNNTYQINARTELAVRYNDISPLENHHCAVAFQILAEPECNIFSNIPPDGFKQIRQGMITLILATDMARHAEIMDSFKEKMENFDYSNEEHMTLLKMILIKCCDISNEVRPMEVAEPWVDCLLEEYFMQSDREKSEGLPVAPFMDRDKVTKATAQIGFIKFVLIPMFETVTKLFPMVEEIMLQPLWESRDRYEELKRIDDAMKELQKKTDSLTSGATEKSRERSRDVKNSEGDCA
Text: (1) Measurement of PDE9-Inhibiting Activity:
1) Preparation of Human Recombinant PDE9 Protein
Based on the base sequence of hsPDE9A1 registered with GenBank database (accession No.: AF048837), hsPDE9A1 fragment was amplified by polymerase chain reaction under the following conditions, using the following sequence (Amasham Pharmacia Biotech) as the primer and Human Prostate […] cDNA library (CLONTECH) as the template DNA, with Pfu Turbo DNA polymerase ([…]):
hPDE9-5A primer: […] [SEQ ID NO: 1]
hPDE9-3A primer: […] [SEQ ID NO: 2]
PCR condition: [95° C., 5 min]×1 cycle, [(95° C., 1 min), (58° C., 2 min), (72° C., 3 min)]×25 cycle, [72° C., 10 min]×1 cycle
Thus obtained hsPDE9A1 fragment was given a restricted enzymatic treatment with NheI and NotI, and thereafter inserted into pcDNA 3.1(+) expression vector (Invitrogen) to let it serve as a human PDE9 expression vector.
Human PDE9 expression vector-transformed Escherichia coli was mass incubated to produce a large amount of PDE9 expression vector, which was transiently transfected into COS-1 cells, with LIPOFECTAMINE 2000 Reagent (GIBCO). […]
To 150 μL of buffer B (70 mmol/L Tris-HCl, pH7.5; 16.7 mmol/L MgCl2, 33.3 nmol/L [^3H]-cGMP) solution containing [^3H]-cGMP (specific activity=244.2 GBq/mmol) at a concentration of 33.3 nmol/L, 50 μL of a solution of the compound to be evaluated (formed by dissolving the compound in DMSO and diluting it with distilled water to DMSO concentration of 5%) and 50 μL of the PDE9 protein solution as prepared in the above, as diluted with buffer C (40 mmol/L Tris-HCl, pH7.5, 15 mmol/L benzamidine, 15 mmol/L 2-mercaptoethanol, 1 μg/mL Pepstatin A, 1 μg/mL Leupeptin) by 1,500×, were added under cooling with ice. […] Thereafter [^3H]-guanosine was eluted with 3 mL of 3 mol/L aqueous ammonia and its radiation activity was measured with liquid scintillation counter.
PDE9 inhibition of the tested compound can be calculated by the following formula: […]
From the inhibition ratios at various concentration levels of each tested compound, its IC50 value against PDE9 was determined.

| Compound | Frequency of non-voiding contraction, pre-administration ([1]; 0.3 mg/kg i.v.) [count/min] | Frequency of non-voiding contraction, post-administration ([1]; 0.3 mg/kg i.v.) [count/min] | Frequency of non-voiding contraction, pre-administration ([1]; 3 mg/kg i.v.) [count/min] | Residual urine volume, pre-administration ([1]; 3 mg/kg i.v.) [mL] | Frequency of non-voiding contraction, post-administration ([1]; 3 mg/kg i.v.) [count/min] | Frequency of non-voiding contraction, pre-administration ([1]; 10 mg/kg i.v.) [count/min] | Frequency of non-voiding contraction, post-administration ([1]; 10 mg/kg i.v.) [count/min] | Residual urine volume, post-administration ([1]; 10 mg/kg i.v.) [mL] | Residual urine volume, pre-administration ([1]; 10 mg/kg i.v.) [mL] | further results |
| --- | --- | --- | --- | --- | --- | --- | --- | --- | --- | --- |
| Cc1c(C(=O)O)sc2nc(Cc3cccc(Cl)c3)[nH]c(=O)c12 [Example 10, 2-(3-Chlorobenzyl)-5-methyl-4-oxo-3,4-dihydrothieno-[2,3-d]pyrimidine-6-carboxylic acid] | 1.16 | 0.80 | 1.16 | 0.95 | 0.49 | 1.16 | 0.60 | 0.95 |  | Residual urine volume, pre-administration ([1]; 0.3 mg/kg i.v.): 0.95 mL |
| O=C(O)c1cc2c(=O)[nH]c(Cc3cccc(Cl)c3)nc2s1 [Example 104, 2-(3-Chlorobenzyl)-4-oxo-3,4-dihydrothieno[2,3-d]pyrimidine-6-carboxylic acid] | 1.08 | 0.55 | 1.44 | 1.37 | 0.78 | 1.57 | 0.83 | 0.62 | 1.68 | Residual urine volume, pre-administration ([1]; 0.3 mg/kg i.v.): 1.54 mL; Frequency of non-voiding contraction, quantitative change ([1]; 0.3 mg/kg i.v.): −0.53 count/min; Residual urine volume, quantitative change ([1]; 0.3 mg/kg i.v.): -0.52 mL; Residual urine volume, post-administration ([1]; 0.3 mg/kg i.v.): 1.02 mL; Frequency of non-voiding contraction, quantitative change ([1]; 3 mg/kg i.v.): −0.66 count/min; Residual urine volume, quantitative change ([1]; 3 mg/kg i.v.): -0.49 mL; Residual urine volume, post-administration ([1]; 3 mg/kg i.v.): 0.88 mL; Frequency of non-voiding contraction, quantitative change ([1]; 10 mg/kg i.v.): −0.74 count/min; Residual urine volume, quantitative change ([1]; 10 mg/kg i.v.): -1.06 mL |
| Cc1c(C(=O)O)sc2nc(Cc3cccc(Cl)c3)[nH]c(=S)c12 [Example 112, 2-(3-Chlorobenzyl)-5-methyl-4-thioxo-3,4-dihydrothieno-[2,3-d]pyrimidine-6-carboxylic acid] | 1.12 | 1.02 | 1.12 | 1.02 | 0.76 | 1.12 | 0.59 | 0.48 | 1.02 | Residual urine volume, post-administration ([1]; 0.3 mg/kg i.v.): 0.91 mL; Residual urine volume, post-administration ([1]; 3 mg/kg i.v.): 0.27 mL |
| 2-(Cyclopent-1-enylmethyl)-5-methyl-4-thioxo-3,4-dihydrothieno[2,3-d]pyrimidine-6-carboxylic acid and 2-cyclopentylidenemethyl-5-methyl-4-thioxo-3,4-dihydrothieno-[2,3-d]pyrimidine-6-carboxylic acid [Example 117] |  |  |  |  |  |  |  |  |  | IC50 [2]: 843 nM; IC50 [3]: 24 nM |
| Cc1c(C(=O)O)sc2nc(Cc3ccc(F)c(Cl)c3)[nH]c(=O)c12 [Example 52, 2-(3-Chloro-4-fluorobenzyl)-5-methyl-4-oxo-3,4-dihydrothieno[2,3-d]pyrimidine-6-carboxylic acid] |  |  |  |  |  |  |  |  |  | IC50 [2]: 3420 nM; IC50 [3]: 38 nM |
| Cc1c(C(=O)O)sc2nc(Cc3cccs3)[nH]c(=O)c12 [Example 2, 5-Methyl-4-oxo-2-(thiophen-2-ylmethyl)-3,4-dihydrothieno[2,3-d]pyrimidine-6-carboxylic acid] |  |  |  |  |  | 0.91 | 0.78 |  | 1.27 | Frequency of non-voiding contraction, pre-administration ([1]; 1 mg/kg i.v.): 0.91 count/min; Residual urine volume, pre-administration ([1]; 1 mg/kg i.v.): 1.27 mL; Frequency of non-voiding contraction, post-administration ([1]; 1 mg/kg i.v.): 0.47 count/min |
| Cc1c(C(=O)O)sc2nc(Cc3ccc(Cl)c(Cl)c3)[nH]c(=O)c12 [Example 36, 2-(3,4-Dichlorobenzyl)-5-methyl-4-oxo-3,4-dihydrothieno-[2,3-d]pyrimidine-6-carboxylic acid] |  |  | 1.16 | 1.33 | 0.77 | 1.11 | 0.64 | 0.64 | 1.06 | Frequency of non-voiding contraction, pre-administration ([1]; 1 mg/kg i.v.): 0.96 count/min; Residual urine volume, pre-administration ([1]; 1 mg/kg i.v.): 0.82 mL; Frequency of non-voiding contraction, post-administration ([1]; 1 mg/kg i.v.): 0.79 count/min; Residual urine volume, post-administration ([1]; 1 mg/kg i.v.): 0.86 mL |
